What follows are compounds tested against T1, Jarid1B (Homo sapiens, UniProt Q9UGL1) (assay: Jarid1B in vitro enzyme inhibition assay (TR-FRET)). Conditions: Table 5; 0.8 nM Jarid1B, H3K4me3-biotin labeled peptide; read-out: JARID1B IC5.
T1 construct: purchased BPS Bioscience (or custom made by MolecularThroughput) 50121
T1 sequence (Q9UGL1 2-751): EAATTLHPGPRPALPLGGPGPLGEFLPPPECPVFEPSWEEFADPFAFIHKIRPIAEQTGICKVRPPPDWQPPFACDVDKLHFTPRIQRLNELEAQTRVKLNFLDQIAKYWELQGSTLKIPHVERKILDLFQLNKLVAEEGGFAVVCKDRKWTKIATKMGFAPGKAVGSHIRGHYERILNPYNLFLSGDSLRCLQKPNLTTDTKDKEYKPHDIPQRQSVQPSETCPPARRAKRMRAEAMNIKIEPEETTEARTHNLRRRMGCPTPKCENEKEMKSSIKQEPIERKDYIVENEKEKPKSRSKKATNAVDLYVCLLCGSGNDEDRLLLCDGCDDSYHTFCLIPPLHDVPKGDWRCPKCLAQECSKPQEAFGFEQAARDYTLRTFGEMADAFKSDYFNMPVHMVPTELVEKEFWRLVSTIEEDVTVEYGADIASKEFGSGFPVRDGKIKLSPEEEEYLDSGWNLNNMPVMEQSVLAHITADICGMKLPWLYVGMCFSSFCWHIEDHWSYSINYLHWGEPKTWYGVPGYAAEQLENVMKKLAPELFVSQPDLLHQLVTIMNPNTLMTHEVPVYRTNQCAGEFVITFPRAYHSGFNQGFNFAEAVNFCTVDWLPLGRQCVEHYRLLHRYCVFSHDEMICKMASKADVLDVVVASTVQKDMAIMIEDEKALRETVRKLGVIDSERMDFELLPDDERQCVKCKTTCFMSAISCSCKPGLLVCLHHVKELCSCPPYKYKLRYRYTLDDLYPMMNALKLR
Format: biochemical
Excerpt: This assay determines the ability of a test compound to inhibit Jarid1B, JMJD2C and JMJD3 demethylase activity. Baculovirus expressed Jarid1B (GenBank Accession #NM-006618, AA 2-751) was purchased from BPS Bioscience (Cat #50121) or custom made by MolecularThroughput. Baculovirus expressed JMJD2C (GenBank Accession #BC143571, AA 2-372) was purchased from BPS Bioscience (Cat#50105). Baculovirus expressed JMJD3 (GenBank Accession #NM-001080424, AA1043-end) was purchased from BPS Bioscience (Cat#50115).
The ability of test compounds to inhibit the activity of Jarid1B was determined in 384-well plate format under the following reaction conditions: 0.8 nM Jarid1B, 300 nM H3K4me3-biotin labeled peptide (Anaspec cat #64357), 2 µM alpha-ketoglutaric acid in assay buffer of 50 mM HEPES, pH7.3, 0.005% Brij35, 0.5 mM TCEP, 0.2 mg/ml BSA, 50 µM sodium L-ascorbate, and 2 µM ammonium iron(II) sulfate. Reaction product was determined quantitatively by TR-FRET after the addition of detection reagent Phycolink Streptavidin-allophycocyanin (Prozyme) and Europium-anti-mono-or di-methylated histone H3 lysine 4 (H3K4me1-2) antibody (PerkinElmer) in the presence of 5 mM EDTA in LANCE detection buffer (PerkinElmer) at a final concentration of 25 nM and 1 nM, respectively.
The assay reaction was initiated by the following: 2 µl of the mixture of 900 nM H3K4me3-biotin labeled peptide and 6 µM alpha-ketoglutaric acid with 2 µl of 11-point serial diluted inhibitor in 3% DMSO was added to each well of the plate, followed by the addition of 2 µl of 2.4 nM Jarid1B to initiate the reaction. The reaction mixture was incubated at room temperature for 30 minutes, and terminated by the addition of 6 µl of 5 mM EDTA in LANCE detection buffer containing 50 nM Phycolink Streptavidin-allophycocyanin and 2 nM Europium-anti-H3K4me1-2 antibody. Plates were read by EnVisionMultilabel Reader in TR-FRET mode (excitation at 320 nm, emission at 615 nm and 665 nm) after 1 hour incubation at room temperature. A ratio was calculated (665/615) for each well and fitted to determine inhibition constant (IC50).

Row | Compound | IC50 [nM]
1 | Cc1ccc(Cn2cnc(-c3cc(-c4nn[nH]c4C(F)(F)F)ccn3)c2)cc1 [Example 65, 2-{1-[(4-methylphenyl)methyl]-1H-imidazol-4-yl}-4-[5-(trifluoromethyl)-1H-1,2,3-triazol-4-yl]pyridine] | > 10000
2 | Fc1cccc(CCn2cnc(-c3cc(-c4nn[nH]c4C(F)(F)F)ccn3)c2)c1F [Example 79, 2-{1-[2-(2,3-difluorophenyl)ethyl]-1H-imidazol-4-yl}-4-[5-(trifluoromethyl)-1H-1,2,3-triazol-4-yl]pyridine] | ≤ 100
3 | FC(F)(F)c1[nH]nnc1-c1ccnc(-c2cn(CC3CCOc4ccccc43)cn2)c1 (centres unmarked) [Example 98, 2-{1-[(3,4-dihydro-2H-1-benzopyran-4-yl)methyl]-1H-imidazol-4-yl}-4-[5-(trifluoromethyl)-1H-1,2,3-triazol-4-yl]pyridine] | ≤ 100
4 | Cc1ccc(Cn2cnc(-c3cc(-c4nn[nH]c4C(F)(F)F)ccn3)c2)c(F)c1 [Example 71, 2-{1-[(2-fluoro-4-methylphenyl)methyl]-1H-imidazol-4-yl}-4-[5-(trifluoromethyl)-1H-1,2,3-triazol-4-yl]pyridine] | 100 to 1000
5 | FC(F)(F)COc1ccccc1Cn1cnc(-c2cc(-c3nn[nH]c3C(F)(F)F)ccn2)c1 [Example 76, 2-(1-{[2-(2,2,2-trifluoroethoxy)phenyl]methyl}-1H-imidazol-4-yl)-4-[5-(trifluoromethyl)-1H-1,2,3-triazol-4-yl]pyridine] | 100 to 1000
6 | CCc1ccc(CCn2cnc(-c3cc(-c4nn[nH]c4C(F)(F)F)ccn3)c2)cc1 [Example 95, 2-{1-[2-(4-ethylphenyl)ethyl]-1H-imidazol-4-yl}-4-[5-(trifluoromethyl)-1H-1,2,3-triazol-4-yl]pyridine] | 100 to 1000
7 | Cc1cc(F)ccc1Cn1cnc(-c2cc(-c3nn[nH]c3C(F)(F)F)ccn2)c1 [Example 70, 2-{1-[(4-fluoro-2-methylphenyl)methyl]-1H-imidazol-4-yl}-4-[5-(trifluoromethyl)-1H-1,2,3-triazol-4-yl]pyridine] | 100 to 1000
8 | COc1cccc2c1CCCC2Cn1cnc(-c2cc(-c3nn[nH]c3C(F)(F)F)ccn2)c1 (centres unmarked) [Example 104, 2-{1-[(5-methoxy-1,2,3,4-tetrahydronaphthalen-1-yl)methyl]-1H-imidazol-4-yl}-4-[5-(trifluoromethyl)-1H-1,2,3-triazol-4-yl]pyridine] | 100 to 1000
9 | Fc1ccc2c(c1)C(n1cnc(-c3cc(-c4nn[nH]c4C(F)(F)F)ccn3)c1)CC2 (centres unmarked) [Example 85, 2-[1-(6-fluoro-2,3-dihydro-1H-inden-1-yl)-1H-imidazol-4-yl]-4-[5-(trifluoromethyl)-1H-1,2,3-triazol-4-yl]pyridine] | ≤ 100
10 | Cn1cnc(-c2cc(-c3nn[nH]c3C(F)(F)F)ccn2)c1-c1ccc(F)cc1 [Example 97, 2-[5-(4-fluorophenyl)-1-methyl-1H-imidazol-4-yl]-4-[5-(trifluoromethyl)-1H-1,2,3-triazol-4-yl]pyridine] | ≤ 100
11 | FC(F)(F)c1[nH]nnc1-c1ccnc(-c2cn(Cc3ccccc3Cl)cn2)c1 [Example 64, 2-{1-[(2-chlorophenyl)methyl]-1H-imidazol-4-yl}-4-[5-(trifluoromethyl)-1H-1,2,3-triazol-4-yl]pyridine] | 100 to 1000
12 | Fc1ccc(Cn2cnc(-c3cc(-c4nn[nH]c4C(F)(F)F)ccn3)c2)c(F)c1 [Example 68, 2-{1-[(2,4-difluorophenyl)methyl]-1H-imidazol-4-yl}-4-[5-(trifluoromethyl)-1H-1,2,3-triazol-4-yl]pyridine] | 100 to 1000
13 | Fc1ccc(CCn2cnc(-c3cc(-c4nn[nH]c4C(F)(F)F)ccn3)c2)c(F)c1 [Example 86, 2-{1-[2-(2,4-difluorophenyl)ethyl]-1H-imidazol-4-yl}-4-[5-(trifluoromethyl)-1H-1,2,3-triazol-4-yl]pyridine] | ≤ 100
14 | Fc1cc(F)c(CCn2cnc(-c3cc(-c4nn[nH]c4C(F)(F)F)ccn3)c2)cc1F [Example 81, 4-[5-(trifluoromethyl)-1H-1,2,3-triazol-4-yl]-2-{1-[2-(2,4,5-trifluorophenyl)ethyl]-1H-imidazol-4-yl}pyridine] | ≤ 100
15 | Fc1cc(F)c(CCn2cnc(-c3cc(-c4nn[nH]c4C(F)(F)F)ccn3)c2)c(F)c1 [Example 82, 4-[5-(trifluoromethyl)-1H-1,2,3-triazol-4-yl]-2-{1-[2-(2,4,6-trifluorophenyl)ethyl]-1H-imidazol-4-yl}pyridine] | 100 to 1000
16 | CC(C)(C)c1ccc(CCn2cnc(-c3cc(-c4nn[nH]c4C(F)(F)F)ccn3)c2)cc1 [Example 96, 2-{1-[2-(4-tert-butylphenyl)ethyl]-1H-imidazol-4-yl}-4-[5-(trifluoromethyl)-1H-1,2,3-triazol-4-yl]pyridine] | 100 to 1000
17 | COc1cccc2c1C(Cn1cnc(-c3cc(-c4nn[nH]c4C(F)(F)F)ccn3)c1)CCC2 (centres unmarked) [Example 107, 2-{1-[(8-methoxy-1,2,3,4-tetrahydronaphthalen-1-yl)methyl]-1H-imidazol-4-yl}-4-[5-(trifluoromethyl)-1H-1,2,3-triazol-4-yl]pyridine] | 100 to 1000
18 | COc1ccc2c(c1)C(Cn1cnc(-c3cc(-c4nn[nH]c4C(F)(F)F)ccn3)c1)CCC2 (centres unmarked) [Example 106, 2-{1-[(7-methoxy-1,2,3,4-tetrahydronaphthalen-1-yl)methyl]-1H-imidazol-4-yl}-4-[5-(trifluoromethyl)-1H-1,2,3-triazol-4-yl]pyridine] | ≤ 100
19 | FC(F)(F)c1[nH]nnc1-c1ccnc(-c2cn(CC3CCc4ccccc43)cn2)c1 (centres unmarked) [Example 83, 2-{1-[(2,3-dihydro-1H-inden-1-yl)methyl]-1H-imidazol-4-yl}-4-[5-(trifluoromethyl)-1H-1,2,3-triazol-4-yl]pyridine] | ≤ 100
20 | COc1ccc(Cn2cnc(-c3cc(-c4nn[nH]c4C(F)(F)F)ccn3)c2)cc1 [Example 67, 2-{1-[(4-methoxyphenyl)methyl]-1H-imidazol-4-yl}-4-[5-(trifluoromethyl)-1H-1,2,3-triazol-4-yl]pyridine] | 100 to 1000
21 | Cc1ccccc1Cn1cnc(-c2cc(-c3nn[nH]c3C(F)(F)F)ccn2)c1 [Example 66, 2-{1-[(2-methylphenyl)methyl]-1H-imidazol-4-yl}-4-[5-(trifluoromethyl)-1H-1,2,3-triazol-4-yl]pyridine] | 100 to 1000
22 | FC(F)(F)c1[nH]nnc1-c1ccnc(-c2cn(CC3CCCc4ccccc43)cn2)c1 (centres unmarked) [Example 58, 2-{1-[(1,2,3,4-tetrahydronaphthalen-1-yl)methyl]-1H-imidazol-4-yl}-4-[5-(trifluoromethyl)-1H-1,2,3-triazol-4-yl]pyridine] | ≤ 100
23 | FC(F)(F)c1[nH]nnc1-c1ccnc(-c2cn(Cc3ccccc3)cn2)c1 [Example 72, 2-(1-benzyl-1H-imidazol-4-yl)-4-[5-(trifluoromethyl)-1H-1,2,3-triazol-4-yl]pyridine] | 100 to 1000
24 | CCOc1ccccc1CCn1cnc(-c2cc(-c3nn[nH]c3C(F)(F)F)ccn2)c1 [Example 59] | ≤ 100
25 | Fc1ccc(CCn2cnc(-c3cc(-c4nn[nH]c4C(F)(F)F)ccn3)c2)cc1 [Example 77] | ≤ 100
26 | COc1ccc(CCn2cnc(-c3cc(-c4nn[nH]c4C(F)(F)F)ccn3)c2)cc1 [Example 93, 2-{1-[2-(4-methoxyphenyl)ethyl]-1H-imidazol-4-yl}-4-[5-(trifluoromethyl)-1H-1,2,3-triazol-4-yl]pyridine] | ≤ 100

Source: patent EP3436445B1, “HISTONE DEMETHYLASE INHIBITORS” (Celgene Quanticel Research, Inc., priority 2016, dated 2017)
